Test results reported in patent US5521315A, “Olefin substituted long chain compounds” (priority 1993, dated 1996).

Tests used:
[1] = system: mast cell degranulation; assay: Serotonin release assay (inhibition of mast cell degranulation); assay type: cell-based; conditions: 50 μM; for RELEASE-SPONT / AVERAGE % RELEASE / inhibition at 50 µM: Table 4; for RELEASE-SPONT: average corrected for spontaneous release; for AVERAGE % RELEASE: average of duplicates; for inhibition at 50 µM: Mast cell
Procedure, shortened: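 Cultured mast cells loaded with 3H-serotonin and sensitized with anti-DNP IgE for 18 h at 37 °C, then triggered with 40 ng/ml DNP-BSA for 45 min with compound in PIPES isotonic buffer pH 7.1.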

[2] = system: CMV promoter activity in transformed (adenovirus) cells; assay: CMV promoter assay (gene transcription and translation; cytotoxicity in transformed cells); assay type: cell-based
Procedure, shortened: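 Reporter assay in adenovirus-transformed cells, reading CMV promoter-driven gene transcription and translation; activity reflects cytotoxic inhibition of cellular protein synthesis machinery.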

[3] = system: LPS-mediated release of TNF from monocytes in whole blood; assay: Ex vivo human TNF model (LPS-stimulated whole blood); assay type: cell-based; conditions: lower doses, FIG. 19
From the text: (§1) FIG. 19 illustrates a comparative experiment comparing CT1508, CT1524, CT1534 and CT2501 in an ex vivo human TNF model described herein. This assay is a predictive model for treatment and prevention of septic shock and sepsis syndrome. This model adds LPS to whole blood (normal human volunteers) to trigger a dose-dependent synthesis and extracellular release of TNF according to Desch et al. (Lymphokine Res. 8:141, 1989). The ex vivo model examines whether LPS-mediated release of TNF from monocytes in whole blood can be blocked by an inventive compound.
as §1, with “This example” for “FIG. 19”

[4] = system: human stromal cells; assay: PDGF-stimulated proliferation of human stromal cells; assay type: cell-based; conditions: Homo sapiens, 1 h; 50 ng/ml PDGF-BB; drug one hour prior; FIGS. 15 and 16; read-out: IC50, stromal cell proliferation
Procedure: (§2) This assay is an in vitro model for restenosis and treatment of atherosclerosis and coronary artery disease. Stromal cells were starved in serum-free media for one day and then stimulated with 50 ng/ml PDGF-BB. The drugs were added at the indicated concentrations one hour prior to PDGF stimulation. Tritiated thymidine was added for one day at the time of PDGF stimulation and the cells were harvested and counted by liquid scintillation counting 24 hrs later.
Another assay for measuring activity of the inventive compounds involves determining PDGF (platelet derived growth factor) proliferative response using human-derived stromal cells. […] Two to three days later, the stromal cells are starved in serum-free media. Twenty four hours later, the cells are treated with a stimulating agent, such as PDGF-AA, PDGF-BB or basic FGF (fibroblast growth factor) with or without IL-1α or TNF, and tritiated thymidine. Cell proliferation is determined by liquid scintillation counting.
as §2

[5] = system: second messenger pathway enzymes in P388 cells (murine monocyte/macrophage line); assay: Changes in lipid mass (DAG, PA) in P388 cells after signal stimulation; assay type: cell-based; conditions: 30 second time point, FIGS. 20-22
Procedure: (§3) FIGS. 20-22 illustrate the effect of one inventive compound (CT1534) on the substates and products of the present second messenger pathway. Various concentrations of CT1534 were incubated with P388 cells (a murine monocyte/macrophage line) and changes in lipid mass determined at 0 time, 30 seconds and 60 seconds after signal stimulation. FIGS. 20-22 show the 30 second time point for two DAG peaks and a PA peak.
as §3, with “This example illustrates” for “FIGS. 20-22 illustrate”

[6] = system: transformed cells (Ras 3T3) and normal 3T3 cells; assay: Cytotoxicity in transformed cells (Ras 3T3) versus normal 3T3 cells; assay type: cell-based; conditions: LD50 comparison; FIG. 17
Procedure: Each inventive compound is investigated for cytotoxicity to determine appropriate doses for biological activity assays and to prevent cytotoxic reactions in in vitro assays when characterizing activity. Cells (e.g., NIH-3T3, Ras transformed 3T3 cells, malignant melanoma LD2 cells, etc.) are added to microtiter plates and drug is added about two days after plating. Cell viability is determined using a fluorescent viability stain (e.g., 2',7'-bis-(2-carboroxyethyl)-5-(and -6)-carboxyfluorescein acetoxymethyl ester, BCECF excitation 488 nm and emission 525 nm) 24, 48 or 72 hours after addition of the drug.
This example illustrates a comparison of cytotoxicity determinations for CT1534 and CT1539 in transformed cells (Ras 3T3) and in normal 3T3 cells to determine the in vitro LD50 value in both cell types and to look for differential cytotoxicity effects between the cell types.

[7] = system: murine lymph node cell (T cell) proliferation; assay: Murine lymph node cell proliferation stimulated by antigen; assay type: cell-based; conditions: Mus musculus, 2 h, drug two hours prior, FIG. 11
From the text: A second immune suppression assay measures a T cell component to the immune reaction. Lymph nodes contain a mixture of cells including T cells, B cells and macrophages. Although the proliferating cells in this assay are T cells, the response is also dependent upon an antigen presenting cell such as a macrophage as well as an elaboration of various immunoregulatory cytokines. Murine T cells will proliferate in vitro in response to a soluble o protein antigen if they are first primed with the antigen in vivo. In vivo priming involves emulsifying the antigen (chicken ovalbumin or OVA) in complete Freunds adjuvant and injecting […] of OVA into both hind footpads of adult Balb/c mice. Fourteen days later the draining lymph nodes (popliteal) are removed and a single cell suspension is prepared in RPMI 1640 supplemented with 10% fetal calf serum. The lymph node cells (200,000) are plated into flat-bottom wells and OVA ([…]) and/or drug is added to appropriate wells and incubated for 5 days. Proliferation is determined and IC50's calculated as above.
This example illustrates the effects of four inventive compounds on inhibition of murine lymph node cell proliferation stimulated by antigen. This assays uses murine T cells that proliferate in vitro in response to a soluble protein antigen that is first used to prime the T cells in vivo. […]

[8] = system: murine thymocyte; assay: Murine thymocyte stimulated by ConA and IL-2 (T cell immune suppression); assay type: cell-based; conditions: FIGS. 8 and 9
Procedure: A thymocyte costimulator assay is conducted to evaluate the inventive compounds to inhibit activation and proliferation of thymocytes caused by stimulation with Con A and interleukin-1 (IL-1), or […]. Thymuses are obtained from mice (e.g., female Balb/C mice) and the thymuses are removed and dissociated into culture media (e.g., RPMI 1640 without serum supplementation). The dissociated thymus tissue and cell suspension is transferred to centrifuge tubes and allowed to settle, washed with HBSS and resuspended in serum-supplemented culture media (e.g., RPMI 1640 with 10% fetal calf serum). Any contaminating red cells are lysed, and viable cells are resuspended and counted. Thymocytes are plated (e.g., 96-well plates at a density of 2×10^5 cells/well) and a stimulating agent, such as Con A, IL-1 (e.g., IL-1α) or IL-2 is added to the well. The cells are incubated for 4 days at 37° C. On the fourth day, the cells are pulsed with tritiated thymidine and cell proliferation determined. Inventive compounds are added at the time of stimulating agent addition.
A third assay measures an ability of an inventive compound to inhibit IL-2-induced proliferation of murine thymocytes. Thymus glands are obtained from 4-6 week old mice and plated as a single cell suspension into flat bottomed wells in RPMI 1640 medium supplemented with 10% fetal calf serum. The inventive compounds are added to appropriate wells and the cells are incubated for 1-2 hrs. Concanavilin A (ConA, 0.25 mg/ml) and […] (20 ng/ml) are added and the plates are incubated for 4 days. Cell proliferation is determined as above.
FIG. 8 compares T cell immune suppression data of thirteen inventive compounds by comparing their IC50 values in a murine thymocyte stimulated by ConA and IL-2 in vitro model.

[9] = system: PBMC in mixed lymphocyte assay culture; assay: Percent viable cells in mixed lymphocyte assay culture after six days; assay type: cell-based, human
[10] = system: PBMC (peripheral blood mononuclear cells); assay: Two-way mixed lymphocyte reaction (MLR), proliferation of PBMC to allogeneic stimulation; assay type: cell-based, human; conditions: FIGS. 1 and 2
From the text: Various in vitro assays can be used to measure effects of the inventive compounds to module immune activity and have antitumor activity using a variety of cellular types. For example, a mixed lymphocyte reaction (MLR) provides a valuable screening tool to determine biological activity of each inventive compound. In the MLR, PBMCs (peripheral blood mononuclear cells) are obtained by drawing whole blood from healthy volunteers in a heparinized container and diluted with an equal volume of hanks balanced salt solution (HBSS). This mixture is layered on a […] density gradient, such as a Ficoll-Hypaque® gradient (specific gravity 1.08), and centrifuged at 1000×g for 25 minutes at room temperature or cooler. PBMC are obtained from a band at a plasma-Ficoll interface, separated and washed at least twice in a saline solution, such as HBSS. Contaminating red cells are lysed, such as by ACK lysis for 10 min at 37° C., and the PBMCs are washed twice in HBSS. The pellet of purified PBMCs is resuspended in complete medium, such as RPMI 1640 plus 20% human inactivated serum. Proliferative response of PBMC to allogeneic stimulation is determined in a two-way MLR performed in a 96-well microliter plate. Briefly, approximately 10^5 test purified PBMC cells in […] complete medium are co-cultured with approximately 10^5 autologous (control culture) or allogeneic (stimulated culture) PBMC cells, wherein the allogeneic cells are from HLA disparate individuals. Varying doses of compounds (drug) are added at the time of addition of cells to the microtiter plate. The cultures are incubated for 6 days at 37° C. in a 5% CO2 atmosphere. At the conclusion of the incubation tritiated thymidine is added (for example, […] of 40 to 60 Ci/mmole) and proliferation determined by liquid scintillation counting.
This example illustrates a mixed lymphocyte reaction assay of inventive compounds by showing the IC50 value of each compound in this assay and a dose response of several compounds to illustrate an IC50 determination.

SMILES	activity in serotonin release assay [1]	RELEASE-SPONT [1]	AVERAGE % RELEASE [1]	inhibition at 50 µM [1]	IC50 [2]	inhibition of LPS-mediated TNF release [3]	IC50 [4]	plateau concentration for inhibition of second messenger signaling ([5]; DAG and PA peaks)	inhibition of second messenger signaling enzymes [5]	differential cytotoxicity, transformed vs normal cells [6]	IC50 [7]	T cell immune suppressing activity [8]	cytotoxicity in mixed lymphocyte assay culture ([9]; 100 μM, six days of culture)	therapeutic window ([9]; cytotoxicity at 100 μM vs MLR IC50)	mixed lymphocyte reaction activity [10]
CC/C=C\CCCCCn1c(=O)c2c(ncn2C)n(C)c1=O [CT1508, 1-(6-cis-nonenyl)-3,7-dimethylxanthine]	increases the activity	3.38%	19.94%	57.9%	75 µM	the most effective agent	< 2 µM	–	–	–	–	–	–	–	–
C=CCCCCCn1c(=O)c2c(ncn2C)n(C)c1=O [CT1534, 1-(6-heptenyl)-3,7-dimethylxanthine]	–	5.47%	22.02%	31.9%	> 500 µM	–	–	around 10 μM	inhibits the enzymes involved in second messenger signaling to an inflammatory stimulus in a dose-response fashion	much more cytotoxic for the transformed cell than the normal cell	–	–	–	–	–
C=CCCCCCCCCn1c(=O)c2c(ncn2C)n(C)c1=O [CT1563, 1-(9-Decenyl)-3,7-dimethylxanthine]	–	7.43%	23.98%	7.39%	50 µM	–	–	–	–	–	~15 µM	potent immune suppressing activity	the most cytotoxic at 100 μM	significant therapeutic window	showed activity within dose ranges achievable in vivo
